Measurements published in ChEMBL document CHEMBL6109114, “Design, synthesis, and biological evaluation of 4-(2-fluorophenoxy)pyridine derivatives as novel FLT3-ITD inhibitors” (Eur J Med Chem, 2025).
Calls of active or inactive are those of the source. The calls are words filed in the database; no cut-off is given here.

Legend:
MOLM-13 [1] = experiment: Induction of apoptosis in human MOLM-13 cells assessed as late apoptotic cells at 0.3 uM incubated for 48 hrs by Annexin V-FITC/PI staining based flow cytometry analysis (reference value: 3.10%); format: functional
[2] = molecular target: Receptor-type tyrosine-protein kinase FLT3 (Homo sapiens) (UniProt P36888); experiment: Inhibition of FLT3 phosphorylation in human MOLM-13 cells at 0.2 uM measured after 2 hrs by Western blot analysis relative to control; format: cell-based
Sequence of Receptor-type tyrosine-protein kinase FLT3 (Homo sapiens) (P36888 whole entry): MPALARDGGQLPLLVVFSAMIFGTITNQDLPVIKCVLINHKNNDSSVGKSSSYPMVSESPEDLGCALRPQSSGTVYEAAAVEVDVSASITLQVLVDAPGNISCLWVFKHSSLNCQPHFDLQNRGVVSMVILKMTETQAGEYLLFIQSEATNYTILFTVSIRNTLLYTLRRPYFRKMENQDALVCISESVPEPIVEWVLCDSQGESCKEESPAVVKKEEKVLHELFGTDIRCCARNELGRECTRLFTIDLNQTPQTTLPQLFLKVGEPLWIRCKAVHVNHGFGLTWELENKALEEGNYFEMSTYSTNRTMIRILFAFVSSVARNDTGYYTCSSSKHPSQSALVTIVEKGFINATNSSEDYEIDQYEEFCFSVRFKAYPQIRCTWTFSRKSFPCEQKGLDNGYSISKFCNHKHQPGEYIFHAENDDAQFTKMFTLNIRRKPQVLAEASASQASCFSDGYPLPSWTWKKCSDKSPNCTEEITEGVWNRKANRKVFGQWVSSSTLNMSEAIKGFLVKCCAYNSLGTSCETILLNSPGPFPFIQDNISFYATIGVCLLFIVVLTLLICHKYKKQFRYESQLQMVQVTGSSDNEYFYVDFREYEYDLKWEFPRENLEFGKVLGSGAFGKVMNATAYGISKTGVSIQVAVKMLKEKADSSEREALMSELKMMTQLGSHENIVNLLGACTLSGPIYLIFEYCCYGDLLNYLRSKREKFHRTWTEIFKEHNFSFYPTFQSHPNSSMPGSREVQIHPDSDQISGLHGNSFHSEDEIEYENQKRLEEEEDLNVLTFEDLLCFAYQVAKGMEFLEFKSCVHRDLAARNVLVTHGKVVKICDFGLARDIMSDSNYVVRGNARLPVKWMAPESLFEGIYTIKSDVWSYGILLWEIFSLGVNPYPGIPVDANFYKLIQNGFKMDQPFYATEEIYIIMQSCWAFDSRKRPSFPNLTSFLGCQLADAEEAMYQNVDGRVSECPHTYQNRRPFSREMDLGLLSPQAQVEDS

BaF3 [3] = experiment: Antiproliferative activity against mouse BaF3 cells harbouring FLT3-ITD-D835Y mutant assessed as inhibition of cell growth measured after 3 days by celltiter-glo luminescent cell viability assay; format: functional, cell-based; conditions: BaF3, 72 h
CYP2C19 = CYP2C19 (Homo sapiens, UniProt P33261); experiment: Inhibition of CYP2C19 in human liver microsomes using S-mephenytoin as substrate at 10 uM incubated for 10 mins in presence of NADPH by LC-MS/MS analysis relative to control; format: ADME, Microsome; conditions: probe S-mephenytoin
Sequence of CYP2C19 (P33261 whole entry): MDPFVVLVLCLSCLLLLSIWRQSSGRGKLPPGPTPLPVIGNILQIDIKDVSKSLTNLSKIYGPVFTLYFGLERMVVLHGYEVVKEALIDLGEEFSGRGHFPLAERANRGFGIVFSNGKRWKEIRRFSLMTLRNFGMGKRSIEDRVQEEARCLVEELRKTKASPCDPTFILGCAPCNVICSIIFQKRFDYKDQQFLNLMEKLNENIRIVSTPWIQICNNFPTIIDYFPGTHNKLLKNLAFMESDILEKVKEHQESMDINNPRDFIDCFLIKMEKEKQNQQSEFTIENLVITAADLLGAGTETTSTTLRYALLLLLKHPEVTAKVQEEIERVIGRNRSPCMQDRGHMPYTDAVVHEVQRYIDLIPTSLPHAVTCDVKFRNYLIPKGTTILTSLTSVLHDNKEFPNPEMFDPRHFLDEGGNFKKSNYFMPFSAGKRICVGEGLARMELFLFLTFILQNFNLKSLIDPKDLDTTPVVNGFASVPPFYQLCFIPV

[4] = molecular target: Receptor-type tyrosine-protein kinase FLT3 (Homo sapiens, UniProt P36888, ITD); experiment: Inhibition of FLT3 ITD mutant (unknown origin) using Fluorescein-Poly GT as substrate preincubated for 10 mins followed by substrate addition and measured after 30 mins in presence of ATP by mobility shift assay
Sequence of Receptor-type tyrosine-protein kinase FLT3 (P36888 whole entry, looked up, stated change not applied): as the sequence (P36888 whole entry) above

BaF3 [5] = experiment: Antiproliferative activity against mouse BaF3 cells harbouring TEL-KIT assessed as inhibition of cell growth measured after 3 days by celltiter-glo luminescent cell viability assay; format: functional, cell-based; conditions: BaF3, 72 h
[6] = Metabolic stability in Beagle dog liver microsomes assessed as parent compound remaining at 1 uM measured after 60 mins by LC-MS/MS analysis; format: ADME, Canis lupus familiaris, Microsome; conditions: read-out: Stability
MOLM-13 [7] = experiment: Induction of apoptosis in human MOLM-13 cells incubated for 48 hrs by Annexin V-FITC/PI staining based flow cytometry analysis; format: functional, cell-based; conditions: dose 0.1-1 µM
[8] = molecular target: CDK6/cyclin D3 (Homo sapiens) (UniProt P30281+Q00534); experiment: Inhibition of human CDK6/cyclinD3 at 1 uM by Eurofins-DiscoverX assay; format: protein-complex assay
[9] = Cmax in mouse at 5 mg/kg, iv; format: ADME, organism-based; conditions: in vivo
[10] = Cmax in mouse at 10 mg/kg, po; format: ADME, organism-based; conditions: in vivo
MOLM-14 = experiment: Antiproliferative activity against human MOLM-14 cells harbouring FLT3-ITD assessed as inhibition of cell growth measured after 3 days by celltiter-glo luminescent cell viability assay; format: functional, cell-based; conditions: MOLM-14, 72 h
MOLM-13 [11] = experiment: Induction of cell cycle arrest in human MOLM-13 cells incubated for 48 hrs; format: functional, cell-based; conditions: dose 0.1-1 µM
MOLM-13 [12] = experiment: Induction of apoptosis in human MOLM-13 cells assessed as viable cells at 0.1 uM incubated for 48 hrs by Annexin V-FITC/PI staining based flow cytometry analysis (reference value: 91.9%); format: functional; conditions: read-out: Activity
[13] = molecular target: CDK3/Cyclin E (Homo sapiens) (UniProt P24864+Q00526); experiment: Inhibition of human CDK3/CyclinE at 1 uM by Eurofins-DiscoverX assay; format: protein-complex assay
[14] = molecular target: Vascular endothelial growth factor receptor 1 (Homo sapiens, UniProt P17948); experiment: Inhibition of FLT1 (unknown origin) using Fluorescein-Poly GT as substrate preincubated for 10 mins followed by substrate addition and measured after 30 mins in presence of ATP by mobility shift assay
MOLM-13 [15] = experiment: Inhibition of STAT5 phosphorylation in human MOLM-13 cells measured after 2 hrs by Western blot analysis; format: cell-based; conditions: dose 0.01-1 µM
[16] = Metabolic stability in Beagle dog liver microsomes assessed as half life at 1 uM measured up to 60 mins in presence of NADPH regenerating system by LC-MS/MS analysis; format: ADME, Canis lupus familiaris, Microsome
A549 = experiment: Antiproliferative activity against non-FLT3 expressing human A549 cells assessed as inhibition of cell growth measured after 3 days by celltiter-glo luminescent cell viability assay; format: functional, cell-based; conditions: A549, 72 h
MOLM-13 [17] = experiment: Induction of cell cycle arrest in human MOLM-13 cells assessed as accumulation of cells at S phase at 1 uM incubated for 48 hrs (reference value: 41.6%); format: functional
MOLM-13 [18] = experiment: Antitumor activity against human MOLM-13 xenografted in male nude mouse assessed as tumor growth inhibition at 30 mg/kg, po administered once daily for 14 days by vernier caliper method relative to control; format: functional; conditions: MOLM-13, 336 h, time 14 day, read-out: TGI
MOLM-13 [19] = experiment: Antiproliferative activity against human MOLM-13 cells harbouring FLT3-ITD assessed as inhibition of cell growth measured after 3 days by celltiter-glo luminescent cell viability assay; format: functional, cell-based; conditions: MOLM-13, 72 h
MOLM-13 [20] = experiment: Induction of apoptosis in human MOLM-13 cells assessed as late apoptotic cells at 1 uM incubated for 48 hrs by Annexin V-FITC/PI staining based flow cytometry analysis (reference value: 3.10%); format: functional
[21] = Volume of distribution in mouse at 5 mg/kg, iv; format: ADME, organism-based; conditions: in vivo
[22] = molecular target: Vascular endothelial growth factor receptor 3 (Homo sapiens, UniProt P35916); experiment: Inhibition of FLT4 (unknown origin) using Fluorescein-Poly GT as substrate preincubated for 10 mins followed by substrate addition and measured after 30 mins in presence of ATP by mobility shift assay
Sequence of Vascular endothelial growth factor receptor 3 (P35916 whole entry): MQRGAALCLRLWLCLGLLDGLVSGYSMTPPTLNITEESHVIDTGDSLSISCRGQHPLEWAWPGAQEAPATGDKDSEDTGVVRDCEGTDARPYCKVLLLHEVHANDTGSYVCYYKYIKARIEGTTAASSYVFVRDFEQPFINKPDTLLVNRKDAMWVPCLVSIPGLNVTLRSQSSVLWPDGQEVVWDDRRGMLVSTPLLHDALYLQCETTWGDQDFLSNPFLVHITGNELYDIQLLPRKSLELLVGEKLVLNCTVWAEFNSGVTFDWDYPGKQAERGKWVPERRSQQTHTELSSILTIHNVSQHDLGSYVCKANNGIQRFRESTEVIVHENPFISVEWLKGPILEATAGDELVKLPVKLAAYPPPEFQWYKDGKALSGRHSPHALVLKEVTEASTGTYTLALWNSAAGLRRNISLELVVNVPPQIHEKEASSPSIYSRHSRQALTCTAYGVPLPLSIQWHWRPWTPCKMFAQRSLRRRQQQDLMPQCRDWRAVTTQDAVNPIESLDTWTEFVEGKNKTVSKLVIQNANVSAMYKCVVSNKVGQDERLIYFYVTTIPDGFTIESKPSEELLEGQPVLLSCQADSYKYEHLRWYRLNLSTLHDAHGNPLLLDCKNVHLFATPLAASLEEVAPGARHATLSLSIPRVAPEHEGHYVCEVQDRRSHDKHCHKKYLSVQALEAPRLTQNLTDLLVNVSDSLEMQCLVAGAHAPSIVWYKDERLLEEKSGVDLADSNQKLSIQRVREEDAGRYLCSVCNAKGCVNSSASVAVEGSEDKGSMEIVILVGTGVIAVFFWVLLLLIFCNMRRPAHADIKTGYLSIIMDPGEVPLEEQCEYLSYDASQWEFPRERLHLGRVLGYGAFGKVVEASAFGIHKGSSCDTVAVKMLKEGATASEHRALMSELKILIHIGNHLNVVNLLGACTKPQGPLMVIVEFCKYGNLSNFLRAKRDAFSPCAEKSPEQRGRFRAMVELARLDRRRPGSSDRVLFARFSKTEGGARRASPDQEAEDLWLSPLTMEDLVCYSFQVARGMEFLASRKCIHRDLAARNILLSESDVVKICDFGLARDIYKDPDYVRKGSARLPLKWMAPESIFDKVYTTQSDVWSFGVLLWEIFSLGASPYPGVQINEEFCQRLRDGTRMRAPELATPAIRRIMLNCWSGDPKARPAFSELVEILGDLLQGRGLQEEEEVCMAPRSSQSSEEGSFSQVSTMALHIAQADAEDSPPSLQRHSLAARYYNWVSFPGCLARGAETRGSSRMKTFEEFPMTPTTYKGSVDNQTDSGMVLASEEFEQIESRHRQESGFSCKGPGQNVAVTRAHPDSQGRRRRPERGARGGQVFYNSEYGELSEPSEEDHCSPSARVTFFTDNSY

[23] = AUC (0 to infinity) in mouse at 5 mg/kg, iv; format: ADME, organism-based; conditions: in vivo
[24] = molecular target: Vascular endothelial growth factor receptor 2 (Homo sapiens, UniProt P35968); experiment: Inhibition of VEGFR2 (unknown origin) using Fluorescein-Poly GT as substrate preincubated for 10 mins followed by substrate addition and measured after 30 mins in presence of ATP by mobility shift assay
Sequence of Vascular endothelial growth factor receptor 2 (P35968 whole entry): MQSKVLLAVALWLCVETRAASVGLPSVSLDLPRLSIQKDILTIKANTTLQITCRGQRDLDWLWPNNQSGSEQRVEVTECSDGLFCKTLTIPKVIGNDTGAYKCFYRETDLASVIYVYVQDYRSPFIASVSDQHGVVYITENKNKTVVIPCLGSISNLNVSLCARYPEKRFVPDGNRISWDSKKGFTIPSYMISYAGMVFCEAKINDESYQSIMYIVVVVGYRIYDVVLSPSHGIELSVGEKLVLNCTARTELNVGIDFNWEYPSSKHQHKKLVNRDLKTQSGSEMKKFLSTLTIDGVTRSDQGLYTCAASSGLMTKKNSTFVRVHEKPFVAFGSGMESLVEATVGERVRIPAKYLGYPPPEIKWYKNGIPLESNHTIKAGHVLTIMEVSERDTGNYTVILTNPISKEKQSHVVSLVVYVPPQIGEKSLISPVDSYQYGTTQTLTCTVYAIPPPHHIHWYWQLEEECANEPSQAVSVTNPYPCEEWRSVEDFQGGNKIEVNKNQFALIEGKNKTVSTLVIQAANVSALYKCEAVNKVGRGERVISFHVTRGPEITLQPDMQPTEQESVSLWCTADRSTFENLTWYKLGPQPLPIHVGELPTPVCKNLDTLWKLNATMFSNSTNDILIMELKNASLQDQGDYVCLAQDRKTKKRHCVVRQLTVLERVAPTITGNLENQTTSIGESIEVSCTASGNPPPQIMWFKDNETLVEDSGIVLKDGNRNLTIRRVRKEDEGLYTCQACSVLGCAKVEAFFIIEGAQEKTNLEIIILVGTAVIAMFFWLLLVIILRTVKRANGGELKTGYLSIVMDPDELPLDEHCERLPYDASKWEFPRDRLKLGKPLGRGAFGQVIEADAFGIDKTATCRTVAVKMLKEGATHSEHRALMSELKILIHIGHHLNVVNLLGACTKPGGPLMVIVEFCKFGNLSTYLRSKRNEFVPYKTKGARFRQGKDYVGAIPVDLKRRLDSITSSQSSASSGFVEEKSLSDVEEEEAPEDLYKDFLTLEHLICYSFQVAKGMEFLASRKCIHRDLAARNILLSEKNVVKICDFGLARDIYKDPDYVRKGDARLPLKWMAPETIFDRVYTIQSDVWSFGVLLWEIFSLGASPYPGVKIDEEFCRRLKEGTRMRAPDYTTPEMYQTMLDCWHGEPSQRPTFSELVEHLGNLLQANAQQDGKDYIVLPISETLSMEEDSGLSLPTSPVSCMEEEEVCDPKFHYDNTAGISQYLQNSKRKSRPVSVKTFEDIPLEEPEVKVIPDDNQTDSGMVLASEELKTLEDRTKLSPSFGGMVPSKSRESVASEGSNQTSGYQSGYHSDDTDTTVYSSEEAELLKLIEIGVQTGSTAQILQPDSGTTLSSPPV

[25] = Metabolic stability in human liver microsomes assessed as parent compound remaining at 1 uM measured after 60 mins by LC-MS/MS analysis; format: ADME, Microsome; conditions: read-out: Stability
BaF3 [26] = experiment: Antiproliferative activity against mouse BaF3 cells harbouring FLT3-ITD assessed as inhibition of cell growth measured after 3 days by celltiter-glo luminescent cell viability assay; format: functional, cell-based; conditions: BaF3, 72 h
[27] = molecular target: Cyclin-dependent kinase 1/cyclin B1 (Homo sapiens) (UniProt P06493+P14635); experiment: Inhibition of human CDK1/CyclinB1 assessed as remaining activity at 1 uM by Eurofins-DiscoverX assay relative to control; format: protein-complex assay
Sequence of Cyclin-dependent kinase 1/cyclin B1 (Homo sapiens) (P06493 whole entry, looked up): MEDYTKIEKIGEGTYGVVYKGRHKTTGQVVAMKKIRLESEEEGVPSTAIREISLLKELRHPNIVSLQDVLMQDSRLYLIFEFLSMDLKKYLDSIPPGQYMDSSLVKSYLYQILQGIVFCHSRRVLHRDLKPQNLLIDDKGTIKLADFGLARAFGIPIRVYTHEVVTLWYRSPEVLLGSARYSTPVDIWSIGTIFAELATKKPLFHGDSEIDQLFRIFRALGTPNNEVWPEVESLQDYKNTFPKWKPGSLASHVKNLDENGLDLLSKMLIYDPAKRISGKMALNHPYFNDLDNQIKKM
Sequence of Cyclin-dependent kinase 1/cyclin B1 (Homo sapiens) (P14635 whole entry, looked up): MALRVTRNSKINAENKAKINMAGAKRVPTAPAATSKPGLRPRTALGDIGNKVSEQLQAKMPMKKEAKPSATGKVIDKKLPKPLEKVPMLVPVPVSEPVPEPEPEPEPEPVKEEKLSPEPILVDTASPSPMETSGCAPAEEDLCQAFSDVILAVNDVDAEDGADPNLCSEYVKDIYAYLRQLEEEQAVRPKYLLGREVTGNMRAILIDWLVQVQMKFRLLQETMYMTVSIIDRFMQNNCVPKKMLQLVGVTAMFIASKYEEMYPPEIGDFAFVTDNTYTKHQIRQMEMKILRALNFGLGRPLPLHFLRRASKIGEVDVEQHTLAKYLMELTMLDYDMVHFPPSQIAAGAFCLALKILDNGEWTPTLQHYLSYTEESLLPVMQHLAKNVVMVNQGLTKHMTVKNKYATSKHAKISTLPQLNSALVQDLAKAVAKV

BaF3 [28] = experiment: Antiproliferative activity against mouse BaF3 cells harbouring VEGFR2 assessed as inhibition of cell growth measured after 3 days by celltiter-glo luminescent cell viability assay; format: functional, cell-based; conditions: BaF3, 72 h
[29] = Half life in mouse at 5 mg/kg, iv; format: ADME, organism-based; conditions: in vivo
[30] = Metabolic stability in human liver microsomes assessed as parent compound remaining at 1 uM measured after 60 mins in presence of NADPH regenerating system by LC-MS/MS analysis; format: ADME, Microsome; conditions: read-out: Stability
BaF3 [31] = experiment: Antiproliferative activity against mouse BaF3 cells harbouring FLT3-ITD-D835V mutant assessed as inhibition of cell growth measured after 3 days by celltiter-glo luminescent cell viability assay; format: functional, cell-based; conditions: BaF3, 72 h
MOLM-13 [32] = experiment: Induction of apoptosis in human MOLM-13 cells assessed as early apoptotic cells at 0.3 uM incubated for 48 hrs by Annexin V-FITC/PI staining based flow cytometry analysis (reference value: 4.93%); format: functional
MV4-11 = experiment: Antiproliferative activity against human MV4-11 cells harbouring FLT3-ITD assessed as inhibition of cell growth measured after 3 days by celltiter-glo luminescent cell viability assay; format: functional, cell-based; conditions: MV4-11, 72 h
[33] = MRT (0 to t) in mouse at 5 mg/kg, iv; format: ADME, organism-based; conditions: in vivo

In the case of `Cc1cc(=O)n(-c2cc(Cl)ccc2F)nc1C(=O)Nc1ccc(Oc2ccnc(NC(=O)N3CC(O)C3)c2)c(F)c1`, the Activity (MOLM-13 [1]) is reported as 12.3%, the inhibition [2] is reported as 100% and the IC50 (BaF3 [3]) is reported as 6600 nM. The inhibition at 10 min, 10 µM (CYP2C19) was 36.9%, the IC50 [4] was 153 nM and the IC50 (BaF3 [5]) was greater than 10000 nM. The remaining at 1 h, 1 µM [6] was 103%, the Activity (MOLM-13 [7]) was “Dose-dependent-effect” and the inhibition [8] was “inactive”. It also gave a Cmax [9] of 443 ng/mL, a Cmax [10] of 306 ng/mL and an IC50 (MOLM-14) of 510 nM. For the same compound, the Activity (MOLM-13 [11]) was “Dose-dependent-effect”, the viability at 0.1 µM (MOLM-13 [12]) was 90.6% and the inhibition [13] was “inactive”. The IC50 [14] was 348 nM, the inhibition (MOLM-13 [15]) was “Dose-dependent-effect” and the half-life at 1 µM [16] was 2.1 h. It also gave an IC50 (A549) greater than 30000 nM, an Activity (MOLM-13 [17]) of 21.2% and an inhibition in vivo at 30 mg/kg (MOLM-13 [18]) of 77.1%. The IC50 (MOLM-13 [19]) was 140 nM, the Activity (MOLM-13 [20]) was 36.2% and the Vd [21] was 20.9 L/kg. It also gave an IC50 [22] of 166 nM, an AUC(0-inf) [23] of 2210 ng·h/mL and an IC50 [24] of 131 nM. For the same compound, the remaining at 1 h, 1 µM [25] was 99.6%, the IC50 (BaF3 [26]) was 190 nM and the Activity [27] was 88%. The IC50 (BaF3 [28]) was 310 nM, the half-life [29] was 6.57 h and the remaining at 1 h, 1 µM [30] was 66.3%. For the same compound, the IC50 (BaF3 [31]) was 7800 nM, the Activity (MOLM-13 [32]) was 13.4% and the IC50 (MV4-11) was 390 nM. It also gave an MRT last [33] of 7.17 h.
